test system: C. elegans; experiment: Efficacy against nematodes (C. elegans motility rating); set-up: key: 0: no effect; 7: reduced movement in 24 h; 8: dead in 24 h; 9: dead in 4 h; conditions: dose 100 ppm, observations at 4 h and 24 h postimmersion
Summary of the method: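 Mixed-stage C. elegans (~50 per well, L1 to adult) in M9 buffer exposed to test compound at 100 ppm, 150 ppm or 200 μM final. Motility of larvae and adults scored under dissecting microscope at 4 h and 24 h.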

Structure (SMILES)	Rating
N#Cc1ccc(-c2ccc(C=C3OC(=O)C(c4cccc(C(F)(F)F)c4)=C3O)cc2)cc1 (mixture of isomers)	9
N#Cc1cccc(C2=C(O)C(=Cc3ccc(-c4ccc(Cl)cc4)cc3)OC2=O)c1 (mixture of isomers)	9
N#Cc1ccc(C2=C(O)C(=Cc3ccc4c(c3)OC(F)(F)O4)OC2=O)cc1 (mixture of isomers)	9
N#Cc1ccc(C2=C(O)C(=Cc3ccc(Cl)s3)OC2=O)cc1 (mixture of isomers)	9
O=C1OC(=Cc2ccc(-c3ccc(C(F)(F)F)cc3)cc2)C(O)=C1c1ccc(Cl)cc1 (mixture of isomers)	9
O=C1OC(=Cc2ncccc2Br)C(O)=C1c1ccc(OC(F)(F)F)cc1 (mixture of isomers)	0
O=C1OC(=Cc2cnccc2Br)C(O)=C1c1ccc(OC(F)(F)F)cc1 (mixture of isomers)	9
O=C1OC(=Cc2cnccc2-c2ccc(F)cc2)C(O)=C1c1ccc(OC(F)(F)F)cc1 (mixture of isomers)	9
O=C1OC(=Cc2cnccc2-c2cccs2)C(O)=C1c1ccc(OC(F)(F)F)cc1 (mixture of isomers)	9
O=C1OC(=Cc2ccc(Cl)s2)C(O)=C1c1ccc(OC(F)(F)F)cc1 (mixture of isomers)	9
N#Cc1ccc(C=C2OC(=O)C(c3ccc(-c4ccc(C#N)cc4)cc3)=C2O)cc1 (mixture of isomers)	9
N#Cc1ccc(-c2ccc(C3=C(O)C(=Cc4ccc(Cl)cc4)OC3=O)cc2)cc1 (mixture of isomers)	9
O=C1OC(=Cc2ccc(C(F)(F)F)cc2)C(O)=C1c1ccc(-c2ccc(Cl)cc2)cc1 (mixture of isomers)	9
N#Cc1ccc(C=C2OC(=O)C(c3ccc(-c4ccc(Cl)cc4)cc3)=C2O)cc1 (mixture of isomers)	9
O=C1OC(=Cc2ccc(Cl)cc2)C(O)=C1c1ccc(-c2ccc(Cl)cc2)cc1 (mixture of isomers)	9
COC1=C(c2ccc(Cl)cc2)C(=O)OC1=Cc1ccc(C#N)cc1 (mixture of isomers) [R=CH3; R1=4-Cl—C6H4**; R2=4-CN—C6H4]	0
O=C1OC(=Cc2ccc(C(F)(F)F)cc2)C(O)=C1c1cccc(C(F)(F)F)c1 (mixture of isomers) [R=H; R1=3-CF3—C6H4**; R2=4-CF3—C6H4]	9
N#Cc1ccc(C=C2OC(=O)C(c3cccc(C(F)(F)F)c3)=C2O)cc1 (mixture of isomers) [R=H; R1=3-CF3—C6H4**; R2=4-CN—C6H4]	9
O=C1OC(=Cc2ccc(F)cc2)C(O)=C1c1cccc(C(F)(F)F)c1 (mixture of isomers) [R=H; R1=3-CF3—C6H4**; R2=4-F—C6H4]	9
N#Cc1cccc(C2=C(O)C(=Cc3ccc(C(F)(F)F)cc3)OC2=O)c1 (mixture of isomers) [R=H; R1=3-CN—C6H4**; R2=4-CF3—C6H4]	9
N#Cc1ccc(C=C2OC(=O)C(c3cccc(C#N)c3)=C2O)cc1 (mixture of isomers) [R=H; R1=3-CN—C6H4**; R2=4-CN—C6H4]	9

Structure (SMILES)	Rating
N#Cc1cccc(C2=C(O)C(=Cc3ccc(Cl)cc3)OC2=O)c1 (mixture of isomers) [R=H; R1=3-CN—C6H4**; R2=4-Cl—C6H4]	9
N#Cc1cccc(C2=C(O)C(=Cc3ccc(F)cc3)OC2=O)c1 (mixture of isomers) [R=H; R1=3-CN—C6H4**; R2=4-F—C6H4]	7
O=C1OC(=Cc2ccc(C(F)(F)F)cc2)C(O)=C1c1cccc(Cl)c1 (mixture of isomers) [R=H; R1=3-Cl—C6H4**; R2=4-CF3—C6H4]	9
N#Cc1ccc(C=C2OC(=O)C(c3cccc(Cl)c3)=C2O)cc1 (mixture of isomers) [R=H; R1=3-Cl—C6H4**; R2=4-CN—C6H4]	9
O=C1OC(=Cc2ccc(Cl)cc2)C(O)=C1c1cccc(Cl)c1 (mixture of isomers) [R=H; R1=3-Cl—C6H4**; R2=4-Cl—C6H4]	9
O=C1OC(=Cc2ccc(F)cc2)C(O)=C1c1cccc(Cl)c1 (mixture of isomers) [R=H; R1=3-Cl—C6H4**; R2=4-F—C6H4]	9
N#Cc1ccc(C2=C(O)C(=Cc3cccc(C(F)(F)F)c3)OC2=O)cc1 (mixture of isomers) [R=H; R1=4-CN—C6H4**; R2=3-CF3—C6H4]	9
N#Cc1ccc(C2=C(O)C(=Cc3ccc(F)cc3)OC2=O)cc1 (mixture of isomers) [R=H; R1=4-CN—C6H4**; R2=4-F—C6H4]	9
N#Cc1ccc(C2=C(O)C(=Cc3ccc(OC(F)(F)C(F)F)cc3)OC2=O)cc1 (mixture of isomers) [R=H; R1=4-CN—C6H4**; R2=4-OCF2CHF2—C6H4]	9
N#Cc1ccc(C2=C(O)C(=Cc3ccc(OC(F)F)cc3)OC2=O)cc1 (mixture of isomers) [R=H; R1=4-CN—C6H4**; R2=4-OCHF2—C6H4]	9
O=C1OC(=Cc2ccc(Cl)cc2Cl)C(O)=C1c1ccc(Cl)cc1 (mixture of isomers) [R=H; R1=4-Cl—C6H4**; R2=2,4-diCl—C6H4]	9
O=C1OC(=Cc2ccc(Cl)c(Cl)c2)C(O)=C1c1ccc(Cl)cc1 (mixture of isomers) [R=H; R1=4-Cl—C6H4**; R2=3,4-diCl—C6H4]	9
O=C1OC(=Cc2ccc(C(F)(F)F)cc2)C(O)=C1c1ccc(F)cc1 (mixture of isomers) [R=H; R1=4-F—C6H4**; R2=4-CF3—C6H4]	9
N#Cc1ccc(C=C2OC(=O)C(c3ccc(F)cc3)=C2O)cc1 (mixture of isomers) [R=H; R1=4-F—C6H4**; R2=4-CN—C6H4]	9
O=C1OC(=Cc2ccc(Cl)cc2)C(O)=C1c1ccc(F)cc1 (mixture of isomers) [R=H; R1=4-F—C6H4**; R2=4-Cl—C6H4]	9
O=C1OC(=Cc2ccc(F)cc2)C(O)=C1c1ccc(F)cc1 (mixture of isomers) [R=H; R1=4-F—C6H4**; R2=4-F—C6H4]	9
O=C1OC(=Cc2ccc(OC(F)(F)F)cc2)C(O)=C1c1ccc(F)cc1 (mixture of isomers) [R=H; R1=4-F—C6H4**; R2=4-OCF3—C6H4]	9
O=C1OC(=Cc2cc(C(F)(F)F)ccc2F)C(O)=C1c1ccc(OC(F)(F)F)cc1 (mixture of isomers) [R=H; R1=4-OCF3—C6H4**; R2=2-F-5-CF3—C6H3]	9
O=C1OC(=Cc2cc(Cl)cc(Cl)c2)C(O)=C1c1ccc(OC(F)(F)F)cc1 (mixture of isomers) [R=H; R1=4-OCF3—C6H4**; R2=3,5-diCl—C6H3]	9
O=C1OC(=Cc2ccc(C(F)(F)F)c(F)c2)C(O)=C1c1ccc(OC(F)(F)F)cc1 (mixture of isomers) [R=H; R1=4-OCF3—C6H4**; R2=3-F-4-CF3—C6H3]	9

test system: Trichostrongylus columbriformis; experiment: In vivo efficacy against T. colubriformis in infected gerbils; conditions: gerbils infected with T. colubriformis; single oral dose of 50 mg/kg by gavage; worm counts four days post-treatment; % mortality as compared to negative control
Protocol: In Vivo Evaluation of the Efficacy of Test Compounds Against T. colubriformis
In this evaluation, gerbils are infected with Trichostrongylus columbriformis infective larvae at a concentration of approximately 800 L3/mL. Larvae for gerbil infections are cultured from feces from sheep previously infected with T. colubriformis. One week post infection, test compounds are administered by gavage as a single oral dose of 50 mg/kg of body weight. For each group of 3 gerbils, 10 mg of test compound are dissolved in 2 mL of PEG 400:DMSO (1:2 v/v) and each animal is administered the test solution at a rate of 0.1 mL/10 g of body weight. […] All animals are observed daily for morbidity and mortality. Four days post-treatment, all animals are weighed and necropsied. Worm counts are conducted with the use of stereoscopes and counters.

Structure (SMILES)	Mortality [%]
N#Cc1ccc(-c2ccc(C=C3OC(=O)C(c4cccc(C(F)(F)F)c4)=C3O)cc2)cc1 (mixture of isomers)	47.50
N#Cc1cccc(C2=C(O)C(=Cc3ccc(-c4ccc(Cl)cc4)cc3)OC2=O)c1 (mixture of isomers)	0.00
N#Cc1ccc(C2=C(O)C(=Cc3ccc4c(c3)OC(F)(F)O4)OC2=O)cc1 (mixture of isomers)	88.10
N#Cc1ccc(C2=C(O)C(=Cc3ccc(Cl)s3)OC2=O)cc1 (mixture of isomers)	20.60
O=C1OC(=Cc2ccc(-c3ccc(C(F)(F)F)cc3)cc2)C(O)=C1c1ccc(Cl)cc1 (mixture of isomers)	0.00
O=C1OC(=Cc2ncccc2Br)C(O)=C1c1ccc(OC(F)(F)F)cc1 (mixture of isomers)	26.90
O=C1OC(=Cc2cnccc2Br)C(O)=C1c1ccc(OC(F)(F)F)cc1 (mixture of isomers)	12.80
O=C1OC(=Cc2cnccc2-c2ccc(F)cc2)C(O)=C1c1ccc(OC(F)(F)F)cc1 (mixture of isomers)	12.80
O=C1OC(=Cc2cnccc2-c2cccs2)C(O)=C1c1ccc(OC(F)(F)F)cc1 (mixture of isomers)	12.80
O=C1OC(=Cc2ccc(Cl)s2)C(O)=C1c1ccc(OC(F)(F)F)cc1 (mixture of isomers)	26.10
N#Cc1ccc(C=C2OC(=O)C(c3ccc(-c4ccc(C#N)cc4)cc3)=C2O)cc1 (mixture of isomers)	29.80
N#Cc1ccc(-c2ccc(C3=C(O)C(=Cc4ccc(Cl)cc4)OC3=O)cc2)cc1 (mixture of isomers)	13.10
O=C1OC(=Cc2ccc(C(F)(F)F)cc2)C(O)=C1c1ccc(-c2ccc(Cl)cc2)cc1 (mixture of isomers)	21.30
N#Cc1ccc(C=C2OC(=O)C(c3ccc(-c4ccc(Cl)cc4)cc3)=C2O)cc1 (mixture of isomers)	0.00
O=C1OC(=Cc2ccc(Cl)cc2)C(O)=C1c1ccc(-c2ccc(Cl)cc2)cc1 (mixture of isomers)	0.00
COC1=C(c2ccc(Cl)cc2)C(=O)OC1=Cc1ccc(C#N)cc1 (mixture of isomers) [R=CH3; R1=4-Cl—C6H4**; R2=4-CN—C6H4]	0.00
O=C1OC(=Cc2ccc(C(F)(F)F)cc2)C(O)=C1c1cccc(C(F)(F)F)c1 (mixture of isomers) [R=H; R1=3-CF3—C6H4**; R2=4-CF3—C6H4]	0.00
N#Cc1ccc(C=C2OC(=O)C(c3cccc(C(F)(F)F)c3)=C2O)cc1 (mixture of isomers) [R=H; R1=3-CF3—C6H4**; R2=4-CN—C6H4]	0.00
O=C1OC(=Cc2ccc(F)cc2)C(O)=C1c1cccc(C(F)(F)F)c1 (mixture of isomers) [R=H; R1=3-CF3—C6H4**; R2=4-F—C6H4]	36.40
N#Cc1cccc(C2=C(O)C(=Cc3ccc(C(F)(F)F)cc3)OC2=O)c1 (mixture of isomers) [R=H; R1=3-CN—C6H4**; R2=4-CF3—C6H4]	0.00
N#Cc1ccc(C=C2OC(=O)C(c3cccc(C#N)c3)=C2O)cc1 (mixture of isomers) [R=H; R1=3-CN—C6H4**; R2=4-CN—C6H4]	25.50

Structure (SMILES)	Mortality [%]
N#Cc1cccc(C2=C(O)C(=Cc3ccc(Cl)cc3)OC2=O)c1 (mixture of isomers) [R=H; R1=3-CN—C6H4**; R2=4-Cl—C6H4]	0.00
N#Cc1cccc(C2=C(O)C(=Cc3ccc(F)cc3)OC2=O)c1 (mixture of isomers) [R=H; R1=3-CN—C6H4**; R2=4-F—C6H4]	0.00
O=C1OC(=Cc2ccc(C(F)(F)F)cc2)C(O)=C1c1cccc(Cl)c1 (mixture of isomers) [R=H; R1=3-Cl—C6H4**; R2=4-CF3—C6H4]	57.90
N#Cc1ccc(C=C2OC(=O)C(c3cccc(Cl)c3)=C2O)cc1 (mixture of isomers) [R=H; R1=3-Cl—C6H4**; R2=4-CN—C6H4]	43.70
O=C1OC(=Cc2ccc(Cl)cc2)C(O)=C1c1cccc(Cl)c1 (mixture of isomers) [R=H; R1=3-Cl—C6H4**; R2=4-Cl—C6H4]	18.80
O=C1OC(=Cc2ccc(F)cc2)C(O)=C1c1cccc(Cl)c1 (mixture of isomers) [R=H; R1=3-Cl—C6H4**; R2=4-F—C6H4]	3.00
N#Cc1ccc(C2=C(O)C(=Cc3cccc(C(F)(F)F)c3)OC2=O)cc1 (mixture of isomers) [R=H; R1=4-CN—C6H4**; R2=3-CF3—C6H4]	50.00
N#Cc1ccc(C2=C(O)C(=Cc3ccc(F)cc3)OC2=O)cc1 (mixture of isomers) [R=H; R1=4-CN—C6H4**; R2=4-F—C6H4]	82.10
N#Cc1ccc(C2=C(O)C(=Cc3ccc(OC(F)(F)C(F)F)cc3)OC2=O)cc1 (mixture of isomers) [R=H; R1=4-CN—C6H4**; R2=4-OCF2CHF2—C6H4]	92.80
N#Cc1ccc(C2=C(O)C(=Cc3ccc(OC(F)F)cc3)OC2=O)cc1 (mixture of isomers) [R=H; R1=4-CN—C6H4**; R2=4-OCHF2—C6H4]	48.40
O=C1OC(=Cc2ccc(Cl)cc2Cl)C(O)=C1c1ccc(Cl)cc1 (mixture of isomers) [R=H; R1=4-Cl—C6H4**; R2=2,4-diCl—C6H4]	91.40
O=C1OC(=Cc2ccc(Cl)c(Cl)c2)C(O)=C1c1ccc(Cl)cc1 (mixture of isomers) [R=H; R1=4-Cl—C6H4**; R2=3,4-diCl—C6H4]	58.0
O=C1OC(=Cc2ccc(C(F)(F)F)cc2)C(O)=C1c1ccc(F)cc1 (mixture of isomers) [R=H; R1=4-F—C6H4**; R2=4-CF3—C6H4]	25.60
N#Cc1ccc(C=C2OC(=O)C(c3ccc(F)cc3)=C2O)cc1 (mixture of isomers) [R=H; R1=4-F—C6H4**; R2=4-CN—C6H4]	14.70
O=C1OC(=Cc2ccc(Cl)cc2)C(O)=C1c1ccc(F)cc1 (mixture of isomers) [R=H; R1=4-F—C6H4**; R2=4-Cl—C6H4]	0.00
O=C1OC(=Cc2ccc(F)cc2)C(O)=C1c1ccc(F)cc1 (mixture of isomers) [R=H; R1=4-F—C6H4**; R2=4-F—C6H4]	0.00
O=C1OC(=Cc2ccc(OC(F)(F)F)cc2)C(O)=C1c1ccc(F)cc1 (mixture of isomers) [R=H; R1=4-F—C6H4**; R2=4-OCF3—C6H4]	51.60
O=C1OC(=Cc2cc(C(F)(F)F)ccc2F)C(O)=C1c1ccc(OC(F)(F)F)cc1 (mixture of isomers) [R=H; R1=4-OCF3—C6H4**; R2=2-F-5-CF3—C6H3]	29.50
O=C1OC(=Cc2cc(Cl)cc(Cl)c2)C(O)=C1c1ccc(OC(F)(F)F)cc1 (mixture of isomers) [R=H; R1=4-OCF3—C6H4**; R2=3,5-diCl—C6H3]	33.40
O=C1OC(=Cc2ccc(C(F)(F)F)c(F)c2)C(O)=C1c1ccc(OC(F)(F)F)cc1 (mixture of isomers) [R=H; R1=4-OCF3—C6H4**; R2=3-F-4-CF3—C6H3]	44.20
